Source: US10258603B2 (priority 2014, dated 2019)

These molecules were tested against T1, CECR2 (Homo sapiens, UniProt Q9BXF3) (assay: CECR2 TR-FRET Binding Assay). Settings: IC50 (uM).
T1 construct: 424-538 was cloned, expressed, and purified to homogeneity; Flag; made in house
From the text: IC50 Measurements for Inhibitors Using CECR2 TR-FRET Binding Assay

T1 sequence (Q9BXF3 424-538 limits assumed): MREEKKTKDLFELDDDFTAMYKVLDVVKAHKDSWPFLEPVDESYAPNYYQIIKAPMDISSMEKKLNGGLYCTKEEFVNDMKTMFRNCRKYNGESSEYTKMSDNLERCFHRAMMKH

| SMILES | IC50 |
| --- | --- |
| C=CCn1cc(C(=O)N(C)C2CCN(c3cc(C(F)(F)F)ncn3)CC2)c2cc[nH]c2c1=O [Example 164, 6-allyl-N-methyl-7-oxo-N-[1-[6-(trifluoromethyl)pyrimidin-4-yl]-4-piperidyl]-1H-pyrrolo[2,3-c]pyridine-4-carboxamide] | 0.21 µM |

Same assay, conditions: read-out: IC50

| SMILES | IC50 |
| --- | --- |
| C=CCn1cc(C(=O)N(C)C2CCCc3c(OC)cccc32)c2cc(C)[nH]c2c1=O (single isomer, unassigned) [Example 288] | 0.041 µM |
| Cn1cc(C(=O)Nc2cccc(CN3CCOCC3)c2)c2cc[nH]c2c1=O [Example 113] | 0.31 µM |
| Cc1ccc(N2CCC(N(C)C(=O)c3cn(C)c(=O)c4[nH]ccc34)CC2)cc1 [Example 176, N,6-dimethyl-7-oxo-N-[1-(p-tolyl)-4-piperidyl]-1H-pyrrolo[2,3-c]pyridine-4-carboxamide] | 0.93 µM |
| CN(C(=O)c1cn(C)c(=O)c2[nH]ccc12)C1CCN(c2ccncn2)CC1 [Example 139, N,6-dimethyl-7-oxo-N-(1-pyrimidin-4-yl-4-piperidyl)-1H-pyrrolo[2,3-c]pyridine-4-carboxamide] | 0.24 µM |
| C=CCn1cc(C(=O)N(C)C2CCN(c3cc(-c4ccco4)ncn3)CC2)c2cc(C)[nH]c2c1=O [Example 269] | 0.033 µM |
| C=CCn1cc(C(=O)N(C)C2CCCc3c(C)cccc32)c2cc(C)[nH]c2c1=O (stereo not drawn) [Example 285] | 0.15 µM |
| CC(C)N1CCCC(NC(=O)c2cn(C)c(=O)c3[nH]ccc23)CC1 (stereo not drawn) [Example 241] | 1.1 µM |
| CN1CCC(CN(C)C(=O)c2cn(C)c(=O)c3[nH]ccc23)CC1 [Example 188] | 2 µM |
| C=CCn1cc(C(=O)N(C)C2CCCc3c(OC)cccc32)c2cc(C)[nH]c2c1=O (single isomer, unassigned) [Example 289] | 0.045 µM |
| C=CCn1cc(C(=O)N(C)C2CCCc3c(F)cccc32)c2cc(C)[nH]c2c1=O (single isomer, unassigned) [Example 286] | 0.041 µM |
| CN(C(=O)c1cn(C)c(=O)c2[nH]ccc12)C1CCN(c2nccc(C(F)(F)F)n2)CC1 [Example 142, N,6-dimethyl-7-oxo-N-[1-[4-(trifluoromethyl)pyrimidin-2-yl]-4-piperidyl]-1H-pyrrolo[2,3-c]pyridine-4-carboxamide] | 0.29 µM |
| CC1CN(C(=O)c2cn(C)c(=O)c3[nH]ccc23)CCC1N(C)C (stereo not drawn) [Example 78, 4-[4-(dimethylamino)-3-methyl-piperidine-1-carbonyl]-6-methyl-1H-pyrrolo[2,3-c]pyridin-7-one] | 9.9 µM |
| Cc1ccc(CN2CCC(N(C)C(=O)c3cn(C)c(=O)c4[nH]ccc34)CC2)cc1 [Example 218] | 0.77 µM |
| CN(C(=O)c1cn(C)c(=O)c2[nH]ccc12)C1CCN(c2cccc(C(F)(F)F)c2)CC1 [Example 174, N,6-dimethyl-7-oxo-N-[1-[3-(trifluoromethyl)phenyl]-4-piperidyl]-1H-pyrrolo[2,3-c]pyridine-4-carboxamide] | 0.59 µM |
| CN(C(=O)c1cn(C)c(=O)c2[nH]ccc12)C1CCN(Cc2ccccc2F)CC1 [Example 216] | 1.2 µM |
| COCCN1CCC(CCN(C)C(=O)c2cn(C)c(=O)c3[nH]ccc23)CC1 [Example 185] | 0.91 µM |
| CN(CC1CCN(CC2CCCC2)CC1)C(=O)c1cn(C)c(=O)c2[nH]ccc12 [Example 187, N-[[1-(cyclopentylmethyl)-4-piperidyl]methyl]-N,6-dimethyl-7-oxo-1H-pyrrolo[2,3-c]pyridine-4-carboxamide] | 0.79 µM |
| C=CCn1cc(C(=O)N(C)C2CCN(c3cc(C4CC4)nc(C)n3)CC2)c2cc(C)[nH]c2c1=O [Example 266] | 0.03 µM |

The next lines start with the values.

| IC50 | SMILES |
| --- | --- |
| 10.3 µM | CN(C)C1CCN(C(=O)c2cn(C)c(=O)c3[nH]ccc23)C1 (stereo not drawn) [Example 60, 4-[3-(dimethylamino)pyrrolidine-1-carbonyl]-6-methyl-1H-pyrrolo[2,3-c]pyridin-7-one] |
| 5.9 µM | CN(C)C(=O)C1CCN(C(=O)c2cn(C)c(=O)c3[nH]ccc23)CC1 [Example 74, N,N-dimethyl-1-(6-methyl-7-oxo-1H-pyrrolo[2,3-c]pyridine-4-carbonyl)piperidine-4-carboxamide] |
| 4.8 µM | Cn1cc(C(=O)N2CCC(CO)CC2)c2cc[nH]c2c1=O [Example 75, 4-[4-(hydroxymethyl)piperidine-1-carbonyl]-6-methyl-1H-pyrrolo[2,3-c]pyridin-7-one] |
| 2.7 µM | Cn1cc(C(=O)N2CCC(N3CCCC3)CC2)c2cc[nH]c2c1=O [Example 77, 6-methyl-4-(4-pyrrolidin-1-ylpiperidine-1-carbonyl)-1H-pyrrolo[2,3-c]pyridin-7-one] |
| 2.4 µM | COC1CCN(C(=O)c2cn(C)c(=O)c3[nH]ccc23)CC1 [Example 66, 4-(4-methoxypiperidine-1-carbonyl)-6-methyl-1H-pyrrolo[2,3-c]pyridin-7-one] |
| 1.4 µM | COCCN1CCC(N(C)C(=O)c2cn(C)c(=O)c3[nH]ccc23)CC1 [Example 225] |
| 1.4 µM | CN(CC1CCN(C2CC2)CC1)C(=O)c1cn(C)c(=O)c2[nH]ccc12 [Example 192] |
| 1.1 µM | CN(CC1CCN(Cc2ccc(F)cc2)CC1)C(=O)c1cn(C)c(=O)c2[nH]ccc12 [Example 203] |
| 1 µM | CN(C(=O)c1cn(C)c(=O)c2[nH]ccc12)C1CCN(c2ccccc2)CC1 [Example 172, N,6-dimethyl-7-oxo-N-(1-phenyl-4-piperidyl)-1H-pyrrolo[2,3-c]pyridine-4-carboxamide] |
| 0.89 µM | CN(C)C1CCC(NC(=O)c2cn(C)c(=O)c3[nH]ccc23)CC1 (stereo not drawn) [Example 21, N-[4-(dimethylamino)cyclohexyl]-6-methyl-7-oxo-1H-pyrrolo[2,3-c]pyridine-4-carboxamide] |
| 0.81 µM | CC(C)CN1CCC(N(C)C(=O)c2cn(C)c(=O)c3[nH]ccc23)CC1 [Example 207, N-(1-isobutyl-4-piperidyl)-N,6-dimethyl-7-oxo-1H-pyrrolo[2,3-c]pyridine-4-carboxamide] |
| 0.71 µM | CN(CC1CCN(C2CCCC2)CC1)C(=O)c1cn(C)c(=O)c2[nH]ccc12 [Example 205] |
| 0.67 µM | COc1ccc(CN2CCC(N(C)C(=O)c3cn(C)c(=O)c4[nH]ccc34)CC2)cc1 [Example 221] |
| 0.41 µM | CN(C(=O)c1cn(C)c(=O)c2[nH]ccc12)C1CCN(c2cccnn2)CC1 [Example 145, N,6-dimethyl-7-oxo-N-(1-pyridazin-3-yl-4-piperidyl)-1H-pyrrolo[2,3-c]pyridine-4-carboxamide] |
| 0.34 µM | Cc1cnc(N2CCC(N(C)C(=O)c3cn(C)c(=O)c4[nH]ccc34)CC2)nc1 [Example 140, N,6-dimethyl-N-[1-(5-methylpyrimidin-2-yl)-4-piperidyl]-7-oxo-1H-pyrrolo[2,3-c]pyridine-4-carboxamide] |
| 0.084 µM | C=CCn1cc(C(=O)N(C)C2CCCc3ccc(C)cc32)c2cc(C)[nH]c2c1=O (single isomer, unassigned) [Example 287] |
| 0.057 µM | C=CCn1cc(C(=O)N(C)C2CCOc3cc(F)ccc32)c2cc(C)[nH]c2c1=O (stereo not drawn) [Example 278] |
| 0.05 µM | C=CCn1cc(C(=O)N(C)C2CCCc3ccncc32)c2cc(C)[nH]c2c1=O (single isomer, unassigned) [Example 290] |
| 0.032 µM | C=CCn1cc(C(=O)N(C)C2CCCc3cc(OC)ccc32)c2cc(C)[nH]c2c1=O (single isomer, unassigned) [Example 281] |
| 0.018 µM | C=CCn1cc(C(=O)N(C)C2CCN(c3cc(-c4ccccc4Cl)ncn3)CC2)c2cc(C)[nH]c2c1=O [Example 270] |
